{"source": "patent US20120040895A1", "about": "“PEPTIDE AVAILABILITY” (priority 2008, published 2012)", "origin": "cited, not measured here", "data": [{"smiles": "CC[C@H](C)[C@H](N)C(=O)N1CCC[C@H]1C(=O)N1CCC[C@H]1C(=O)O", "note": "[IPP, Isoleucine-Proline-Proline]", "values": [{"measurement": "Further increase of AUC when consumed with the meal", "setting": "yoghurt drink consumed with breakfast, versus fasted state", "result": 30, "unit": "%"}, {"measurement": "Increase of plasma IPP level (area under the concentration vs. time curve) compared to a control drink", "setting": "yoghurt drink drunk in overnight fasted state 30 min prior to breakfast", "result": "more than two-fold"}]}]}
